Experimental data as given in US20040266885A1, “Wood preservative compositions” (priority 2001, published 2004).
“And” between values parts separate entries of the source, which are not always exact repeats. Equal values may be shown once. “Also recorded” adds a separate entry of the source.

Test system: C. formosanus
Assay: Laboratory termite test, modified ASTM 3345-74, soil/sand culture, NaOH carrier, blocks not leached; for Termite Attack Rating: key: Score 0: No attack; Score 1: Attempted attack; Score 2: Slight attack; Score 3: Average attack; Score 4: Strong attack
Assay type: in vivo
Details: for termite survival / mortality at the end of the test period / Tunneling Activity / Visible Mortality / prevention of termite attack / restriction of termite damage: 4 weeks; for prevention of termite attack / restriction of termite damage: all concentrations used (1-10%); for Mean Rating (termite attack): mean of 4 specimens; for Mean Rating (termite attack) / Termite Attack Rating: 4 weeks soil/sand culture; for Termite Attack Rating: single specimen; for repellent effect (soil covering of test specimens): specimens treated with 5, 7 and 10% solutions only partially soil covered
Experimental: A further experiment was undertaken according to the modified ASTM 3345-74 test detailed in Example 2 with the following 6 changes to the protocol:
1. The solutions tested were as follows:
2. The incubation substrate was a soil/sand mixture (1:1) to which had been added 75 ml of de-ionised water. This substrate was chosen as being more representative of the laboratory conditions under which the wild caught termites (C. formosanus) were maintained.
3. The treated timber samples were positioned on plastic mesh on top of the soil substrate. This method of placement is that used in European Standard EN 117 and is more representative of the feeding conditions of the wild caught termites maintained in the laboratory.
4. 250 termites were used in each incubation vessel.
5. The wood block specimens were not subjected to a leaching process.
6. Evidence of termite tunneling activity and mortality was determined at completion of the incubation period only (4 weeks) and no examinations were undertaken for surface activity.

SMILES: Oc1c(Br)cc(Cc2cc(Br)c(O)c(Br)c2)cc1Br [TBBF]
- termiticidal and termite repellent activity (conclusion): significant termiticidal and termite repellent activity
- termite survival / mortality at the end of the test period: the majority of the termites were killed by the end of the test period
- Tunneling Activity (solution conc. 1%): Yes
- Visible Mortality (solution conc. 1%): 34-66%
- Tunneling Activity (solution conc. 3%): Yes
- Visible Mortality (solution conc. 3%): 34-66%
- Tunneling Activity (solution conc. 5%): Yes
- Visible Mortality (solution conc. 5%): 67-100%
- Tunneling Activity (solution conc. 7%): Yes
- Visible Mortality (solution conc. 7%): 67-100%
- Tunneling Activity (solution conc. 10%): Yes
- Visible Mortality (solution conc. 10%): 67-100%
- prevention of termite attack / restriction of termite damage: significant attack was prevented by all concentrations; also recorded: a very significant effect in restricting termite damage
- toxic value, lower (concentration at which the wood is no longer sufficiently protected) (mean loading, solution concentration 1%, not leached): 6.78 kg/m^3
- toxic value, upper (lowest concentration which protects the wood) (mean loading, solution concentration 3% (TBBF) or 1%, not leached): 20.53 kg/m^3
- Mean Rating (termite attack) (solution conc. 1%): 1.50
- Termite Attack Rating (solution conc. 1%): 3 and 1
- Mean Rating (termite attack) (solution conc. 3%): 0.75
- Termite Attack Rating (solution conc. 3%): 0 and 1
- Mean Rating (termite attack) (solution conc. 5%): 0.5
- Termite Attack Rating (solution conc. 5%): 0 and 1
- Mean Rating (termite attack) (solution conc. 7%): 0.75
- Termite Attack Rating (solution conc. 7%): 1 and 0
- Mean Rating (termite attack) (solution conc. 10%): 0.5
- Termite Attack Rating (solution conc. 10%): 1 and 0
- repellent effect (soil covering of test specimens): a repellent effect

SMILES: O=S(=O)(c1cc(Br)c(O)c(Br)c1)c1cc(Br)c(O)c(Br)c1 [TBBS]
- termiticidal and termite repellent activity (conclusion): significant termiticidal and termite repellent activity
- termite survival / mortality at the end of the test period: significant termite mortality by the end of the test period
- Tunneling Activity (solution conc. 1%): Yes
- Visible Mortality (solution conc. 1%): 67-100%
- Tunneling Activity (solution conc. 3%): Yes
- Visible Mortality (solution conc. 3%): 34-66% and 67-100%
- Tunneling Activity (solution conc. 5%): Yes
- Visible Mortality (solution conc. 5%): 67-100%
- Tunneling Activity (solution conc. 7%): Yes
- Visible Mortality (solution conc. 7%): 67-100% and 100%
- Tunneling Activity (solution conc. 10%): Yes
- Visible Mortality (solution conc. 10%): 34-66% and 67-100%
- prevention of termite attack / restriction of termite damage: significant attack was prevented by all concentrations; also recorded: a very significant effect in restricting termite damage
- Mean Rating (termite attack) (solution conc. 1%): 1.00
- Termite Attack Rating (solution conc. 1%): 1
- Mean Rating (termite attack) (solution conc. 3%): 0.5
- Termite Attack Rating (solution conc. 3%): 1 and 0
- Mean Rating (termite attack) (solution conc. 5%): 1.00
- Termite Attack Rating (solution conc. 5%): 1
- Mean Rating (termite attack) (solution conc. 7%): 0.75
- Termite Attack Rating (solution conc. 7%): 1 and 0
- Mean Rating (termite attack) (solution conc. 10%): 0.25
- Termite Attack Rating (solution conc. 10%): 0 and 1
- repellent effect (soil covering of test specimens): a repellent effect was noted
